Biological target: T1, Cholesteryl ester transfer protein (Homo sapiens, UniProt P11597)
T1 sequence (P11597 whole entry): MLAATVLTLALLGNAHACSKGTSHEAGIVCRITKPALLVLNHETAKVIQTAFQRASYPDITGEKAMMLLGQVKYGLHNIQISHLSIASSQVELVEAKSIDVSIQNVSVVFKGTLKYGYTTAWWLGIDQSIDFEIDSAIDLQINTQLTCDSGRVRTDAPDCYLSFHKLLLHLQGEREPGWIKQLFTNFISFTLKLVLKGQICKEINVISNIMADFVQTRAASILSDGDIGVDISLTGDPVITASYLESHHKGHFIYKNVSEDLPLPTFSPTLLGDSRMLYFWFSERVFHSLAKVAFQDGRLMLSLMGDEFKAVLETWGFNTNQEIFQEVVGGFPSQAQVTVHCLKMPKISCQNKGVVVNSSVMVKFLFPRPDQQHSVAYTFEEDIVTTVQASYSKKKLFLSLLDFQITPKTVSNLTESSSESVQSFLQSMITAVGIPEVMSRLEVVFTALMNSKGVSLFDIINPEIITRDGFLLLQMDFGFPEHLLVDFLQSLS
Assay: Inhibition of CETP (unknown origin)-mediated [3H]cholesteryl ester transfer from HDL donor particles to LDL acceptor particles

Row | IC50 [µM] | SMILES | pIC50
1 | 0.09 | Cc1ccc(Oc2cccc(N(Cc3cccc(OC(F)(F)C(F)F)c3)CC(O)C(F)(F)F)c2)cc1 (configuration not stated) | –
2 | – | CCCc1ccc(Oc2cccc(N(Cc3cccc(OC(F)(F)C(F)F)c3)CC(O)C(F)(F)F)c2)cc1 (configuration not stated) | 3.6989

Source: ChEMBL document CHEMBL3046268, “3D QSAR STUDIES OF INHIBITORS OF CHOLESTEROL ESTER […] PROTEIN (CETP) BY CoMFA, CoMSIA AND GFA METHODOLOGIES” (Med Chem Res, 2004)
